{"source": "patent US9034891B2", "about": "“Bicyclic heterocyclic spiro compounds” (ISRAEL INSTITUTE FOR BIOLOGICAL RESEARCH, priority 2009, dated 2015)", "key": {"M1 mAChR [1]": {"target": "T1, M1 mAChR (Rattus norvegicus, UniProt P08482)", "T1 sequence (P08482 1-460)": "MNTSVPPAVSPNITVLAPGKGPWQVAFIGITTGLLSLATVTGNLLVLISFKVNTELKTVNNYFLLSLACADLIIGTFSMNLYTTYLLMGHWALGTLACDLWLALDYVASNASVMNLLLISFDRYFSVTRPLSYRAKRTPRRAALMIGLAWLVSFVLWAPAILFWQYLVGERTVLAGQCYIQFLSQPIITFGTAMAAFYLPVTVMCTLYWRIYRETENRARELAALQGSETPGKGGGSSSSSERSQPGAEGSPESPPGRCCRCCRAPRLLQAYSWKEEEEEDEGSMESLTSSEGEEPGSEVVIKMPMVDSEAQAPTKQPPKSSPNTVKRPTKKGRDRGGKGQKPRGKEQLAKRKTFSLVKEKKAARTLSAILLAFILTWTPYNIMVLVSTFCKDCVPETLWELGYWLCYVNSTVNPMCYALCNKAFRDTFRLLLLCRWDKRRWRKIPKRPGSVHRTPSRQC", "settings": "[3H]PZ, rat cortical membranes"}, "Mu Receptor": {"target": "Mu Receptor (Homo sapiens, UniProt P35372)", "sequence (P35372 whole entry)": "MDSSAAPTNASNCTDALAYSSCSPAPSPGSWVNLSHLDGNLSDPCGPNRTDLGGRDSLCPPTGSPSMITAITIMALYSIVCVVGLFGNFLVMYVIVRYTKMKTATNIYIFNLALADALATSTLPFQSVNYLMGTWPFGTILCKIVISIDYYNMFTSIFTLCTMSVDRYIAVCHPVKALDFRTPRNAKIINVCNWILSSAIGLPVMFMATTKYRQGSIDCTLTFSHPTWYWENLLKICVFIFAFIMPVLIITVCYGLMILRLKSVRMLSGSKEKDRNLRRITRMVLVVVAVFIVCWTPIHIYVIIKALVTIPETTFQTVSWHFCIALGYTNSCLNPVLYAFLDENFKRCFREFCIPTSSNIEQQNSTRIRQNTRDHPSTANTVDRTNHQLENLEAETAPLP", "assay": "Functional study, agonist", "excerpt": "(§1) It was specifically designed to provide information not only on potential limitations of drug candidates, but also for off-target activity identification. […] In a further extension of this study, functional studies were done on most of these receptors."}, "5HT2B Receptor": {"target": "5HT2B Receptor (Homo sapiens, UniProt P41595)", "sequence (P41595 whole entry)": "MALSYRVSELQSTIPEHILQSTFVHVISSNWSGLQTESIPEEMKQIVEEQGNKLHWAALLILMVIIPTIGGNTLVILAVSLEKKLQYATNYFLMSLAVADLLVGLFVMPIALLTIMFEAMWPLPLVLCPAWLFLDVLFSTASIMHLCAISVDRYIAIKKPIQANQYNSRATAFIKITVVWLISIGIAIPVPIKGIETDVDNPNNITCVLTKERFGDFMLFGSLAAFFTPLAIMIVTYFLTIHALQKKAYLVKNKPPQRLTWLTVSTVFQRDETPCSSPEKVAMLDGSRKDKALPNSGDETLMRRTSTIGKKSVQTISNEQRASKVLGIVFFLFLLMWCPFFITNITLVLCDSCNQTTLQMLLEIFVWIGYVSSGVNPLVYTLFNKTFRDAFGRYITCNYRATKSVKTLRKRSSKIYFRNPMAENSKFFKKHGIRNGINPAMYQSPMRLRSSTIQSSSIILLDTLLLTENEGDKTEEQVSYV", "assay": "Functional study, agonist", "settings": "100 μM", "excerpt": "as §1"}, "ERK 1/2 phosphorylation": {"test_system": "ERK 1/2 phosphorylation", "assay": "Phospho-p44/42 MAPK (ERK 1/2) detection in PC12M1 cells", "type": "cell-based, rat", "settings": "3 hours"}, "sigma 2 receptor": {"target": "sigma 2 receptor (Homo sapiens, UniProt Q5BJF2)", "sequence (Q5BJF2 whole entry, species assumed)": "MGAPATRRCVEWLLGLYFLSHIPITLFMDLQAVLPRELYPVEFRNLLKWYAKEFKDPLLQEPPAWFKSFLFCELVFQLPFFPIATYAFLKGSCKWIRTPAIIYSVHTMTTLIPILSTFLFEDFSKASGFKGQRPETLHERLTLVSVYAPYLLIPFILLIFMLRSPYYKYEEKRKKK", "assay": "Binding to sigma 2 receptor", "settings": "0.1 nM-10 μM", "excerpt": "as §1"}, "GSK-3β": {"test_system": "GSK-3β", "assay": "Phospho-GSK3β (Ser 9) western blot in PC12 cells transfected with M1 mAChR, +Aβ25-35", "type": "cell-based, rat", "settings": "100 μM-1 nM; Aβ25-35 20 μM", "text": "(§2) Anti-GSK-3 (Santa Cruz Biotechnology) is a phosphorylation-independent monoclonal antibody reactive with both GSK-3α and GSK3β. In the same experiments the status of tau protein phosphorylation was studied using mouse anti Tau-1 monoclonal antibody (Chemicon, CAT number MAB3420), which recognizes an unphosphorylated epitope of tau."}, "M1 mAChR [2]": {"target": "T1, M1 mAChR", "assay": "biochemical"}, "[3]": {"procedure": "On the day of dosing, careful clinical examinations were carried out and recorded periodically during the first 4 hours post-dosing and at the end of the respective working day. Thereafter, animals were inspected and clinical signs were recorded at least once daily throughout the entire 14-day observation period. Observations included changes in skin, fur, eyes, mucous membranes, occurrence of secretions and excretions (e.g. diarrhea) and autonomic activity (e.g. lacrimation, salivation, piloerection, pupil size, unusual respiratory pattern). Changes in gait, posture and response to handling, as well as the presence of bizarre behavior, tremors, convulsion, sleep and coma were also examined. […] In view of the sequential method applied in the current study and in order to standardize, as much as possible, all body weight and body weight gain values, the respective percentage change in body weight vs. the day of dosing was calculated for each animal and group. […] All animals were subjected to a full detailed necropsy and gross pathological examination following the scheduled termination. At necropsy, all animals were subjected to thorough examination, including the external surface of the body, all orifices, cranial, thoracic and abdominal cavities and their contents."}, "tau protein": {"test_system": "tau protein", "assay": "Tau-1 (unphosphorylated tau) western blot in PC12 cells transfected with M1 mAChR, +Aβ25-35", "type": "cell-based, rat", "settings": "100 μM-1 nM; Aβ25-35 20 μM", "text": "as §2"}, "PC12M1 cells": {"test_system": "PC12M1 cells", "assay": "Mitochondrial apoptosis pathway, Bax and Bcl-2 immunoreactivity in PC12M1 cells", "design": "Emax: dose or concentration left out as unconfirmed", "experimental": "These cells were partially differentiated (2-3 days), as observed under microscope. […] The pellet (rich mitochondrial fraction) was re-suspended with 200 μl Ripa buffer and lysed by rapid passage through a syringe needle (23G) for five to six times. The lysate was then used for further evaluation.\nBands were probed using the Rabbit Bax antibody (1:1000, Cell signaling, Cat. No. 2772) and Rabbit Bcl-2 antibody (1:1000, Cell signaling, Cat. No. 2870) followed by anti rabbit IgG (H&L) HRP (1:5,000, Jackson Immuno Research, 111-035-144)."}}, "note": "Where two headings read alike, the source gives them in different places.", "data": [{"smiles": "C[C@@H]1SC2(CCN(C)CC2)CN1C(=O)CCc1c[nH]c2ccccc12", "note": "(single isomer, unassigned) [AF710B]", "values": [{"measurement": "fraction of higher affinity binding site", "setting": "M1 mAChR [1]", "value": 29, "unit": "%"}, {"measurement": "fraction of lower affinity binding site", "setting": "M1 mAChR [1]", "value": 71, "unit": "%"}, {"measurement": "Ki", "setting": "M1 mAChR [1]; read-out: lower affinity binding site KL", "value": 41, "unit": "µM"}, {"measurement": "EC50", "setting": "Mu Receptor", "value": 13, "unit": "µM"}, {"measurement": "partial agonist efficacy on 5HT2B receptor", "setting": "5HT2B Receptor", "value": 17, "unit": "%"}, {"measurement": "phospho-ERK1/2, compound alone", "setting": "ERK 1/2 phosphorylation", "value": "does not increase"}, {"measurement": "binding to sigma 2 receptor", "setting": "sigma 2 receptor", "value": "does not bind"}, {"measurement": "overactivation of GSK-3β induced by Aβ25-35", "setting": "GSK-3β", "value": "inhibited the overactivation of GSK-3β"}, {"measurement": "Ki", "setting": "M1 mAChR [2]", "value": 0.046, "unit": "nM"}, {"measurement": "Ki", "setting": "M1 mAChR [2]; KH, brucine experiment, without brucine", "value": 0.015, "unit": "nM"}, {"measurement": "Ki", "setting": "M1 mAChR [2]; KH, with brucine 0.1 mM", "value": 0.034, "unit": "nM"}, {"measurement": "Ki", "setting": "M1 mAChR [2]; KL, brucine experiment, without brucine", "value": 34000, "unit": "nM"}, {"measurement": "Ki", "setting": "M1 mAChR [2]; KL, with brucine 0.1 mM", "value": 15000, "unit": "nM"}, {"measurement": "mortality", "setting": "[3]; 1, 10 and 50 mg/kg, oral gavage, 14-day observation", "value": "No mortality"}, {"measurement": "gross pathological findings at necropsy", "setting": "[3]; rat, in vivo, po", "value": "No gross pathological findings"}, {"measurement": "Tau-1 staining decreased by Aβ25-35", "setting": "tau protein", "value": "restored these effects to control level"}, {"measurement": "Bax elevation after NGF deprivation", "setting": "PC12M1 cells; PC12M1 cells", "value": "attenuated Bax elevation"}, {"measurement": "Bcl-2, maximum effect", "setting": "PC12M1 cells; PC12M1 cells, Aβ 25-35, 1 nM", "value": "164±32% of control"}, {"measurement": "Emax", "setting": "PC12M1 cells; Rattus norvegicus, read-out: Aβ 25-35 induced neurotoxicity expressed as Bax/Bcl2, maximum effect", "value": 18, "unit": "%"}]}]}
